This assay deals with T1, Human glucocorticoid receptors (Homo sapiens, UniProt P04150).
T1 construct: made in house; host or cells: Sf9 insect cells, recombinant baculovirus (BAC-TO-BAC)
T1 sequence (P04150 1-777): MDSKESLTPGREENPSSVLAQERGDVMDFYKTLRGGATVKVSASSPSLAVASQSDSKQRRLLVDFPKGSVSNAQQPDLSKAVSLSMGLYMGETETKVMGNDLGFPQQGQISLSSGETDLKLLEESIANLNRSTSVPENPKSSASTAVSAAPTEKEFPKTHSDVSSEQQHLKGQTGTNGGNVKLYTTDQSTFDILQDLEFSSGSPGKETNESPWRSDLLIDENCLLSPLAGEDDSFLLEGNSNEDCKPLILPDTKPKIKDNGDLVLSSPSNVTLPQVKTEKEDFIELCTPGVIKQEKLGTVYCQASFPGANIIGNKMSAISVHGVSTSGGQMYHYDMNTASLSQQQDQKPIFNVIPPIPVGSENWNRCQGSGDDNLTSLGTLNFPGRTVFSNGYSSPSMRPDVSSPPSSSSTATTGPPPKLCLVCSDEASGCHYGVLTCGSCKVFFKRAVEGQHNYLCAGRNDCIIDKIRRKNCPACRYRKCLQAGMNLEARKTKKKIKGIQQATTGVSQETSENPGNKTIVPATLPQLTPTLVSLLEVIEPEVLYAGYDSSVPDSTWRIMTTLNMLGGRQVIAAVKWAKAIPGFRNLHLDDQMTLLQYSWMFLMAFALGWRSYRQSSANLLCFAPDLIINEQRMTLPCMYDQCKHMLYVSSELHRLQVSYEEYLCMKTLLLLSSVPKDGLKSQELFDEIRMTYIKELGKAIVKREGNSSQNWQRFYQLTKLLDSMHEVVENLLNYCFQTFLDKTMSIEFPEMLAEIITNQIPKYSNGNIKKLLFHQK
The assay is described as follows: Radioligand filter binding assay, displacement of 3(H)-dexamethasone from human glucocorticoid receptor cytosol. Particulars: 1.7 μM test compound, inhibition of 3(H)-dex binding to hGR; for inhibition at 1.7 µM: read-out: GR BINDING (% Inhibition @ 1.7 μM).

In the case of `CCOC(=O)/C=C/COc1cccc(C2Oc3cccc(OC)c3-c3ccc(NS(C)(=O)=O)cc32)c1` (stereo not shown) [Example 94, ethyl (2E)-4-(3-{1-methoxy-8-[(methylsulfonyl)amino]-6H-benzo[c]chromen-6-yl}phenoxy)-2-butenoate], the inhibition (in general, the percentage by which the read-out fell short of the control) at 1.7 µM amounted to 79.6%.

For the compound `CCCC1Oc2cccc(OC(F)F)c2-c2ccc(NS(C)(=O)=O)cc21` (racemic) [Example 27], the inhibition at 1.7 µM was 86.8%.

Regarding `COc1cccc2c1-c1ccc(NS(C)(=O)=O)cc1C(c1cccc(CCCCC#N)c1)O2` (stereo not shown) [Example 113, N-{6-[3-(4-cyanobutyl)phenyl]-1-methoxy-6H-benzo[c]chromen-8-yl}methanesulfonamide], the inhibition at 1.7 µM was 87.7%.

With `COc1cccc2c1-c1ccc(NS(C)(=O)=O)cc1C(Cc1cc(F)cc(F)c1)O2` (stereo not shown) [Example 85, N-[6-(3,5-difluorobenzyl)-1-methoxy-6H-benzo[c]chromen-8-yl]methanesulfonamide], the inhibition at 1.7 µM stood at 81.6%.

Regarding `CCS(=O)(=O)Nc1ccc2c(c1)C(c1ccccc1)Oc1cccc(OC)c1-2` (stereo not shown) [Example 7, (1-methoxy-6-phenyl-6H-dibenzo(b,d)pyran-8-yl)ethanesulfonamide], the “GR BINDING (% Inhibition @ 1.7 μM)” value is 90.6%.

For `COc1cccc2c1-c1ccc(NS(=O)(=O)C(C)C)cc1C(c1ccccc1)O2` (stereo not shown) [Example 8, (1-methoxy-6-phenyl-6H-dibenzo(b,d)pyran-8-yl)isopropanesulfonamide], the “GR BINDING (% Inhibition @ 1.7 μM)” value was 87.9%.

Regarding `COCCOCOc1ccc2c(c1OC)-c1ccc(NS(C)(=O)=O)cc1C(c1ccccc1)O2` (stereo not shown) [Example 106, N-{1-methoxy-2-[(2-methoxyethoxy)methoxy]-6-phenyl-6H-benzo[c]chromen-8-yl}methanesulfonamide], the inhibition at 1.7 µM was found to be 42.7%.

Consider `CCOC(=O)CCC1Oc2cccc(OC)c2-c2ccc(NS(C)(=O)=O)cc21` (stereo not shown) [Example 46], for which the inhibition at 1.7 µM was found to be 84.6%.

With `COc1cccc2c1-c1ccc(NS(C)(=O)=O)cc1C(/C=C/c1ccccc1)O2` (stereo not shown) [Example 89, N-{1-methoxy-6-[(E)-2-phenylethenyl]-6H-benzo[c]chromen-8-yl}methanesulfonamide], the inhibition at 1.7 µM stood at 86.1%.

Regarding `COc1cccc2c1-c1ccc(CCN)cc1C(c1ccccc1)O2` (stereo not shown) [Example 19, (1-methoxy-6-phenyl-6H-dibenzo(b,d)pyran-8-yl)ethylamine], the inhibition at 1.7 µM stood at 66%.

With `CCOC(=O)CCCCCC1Oc2cccc(OC)c2-c2ccc(NS(C)(=O)=O)cc21` (stereo not shown) [Example 79, ethyl 6-{1-methoxy-8-[(methylsulfonyl)amino]-6H-benzo[c]chromen-6-yl}hexanoate], the inhibition at 1.7 µM amounted to 66.1%.

As to `C[Si](C)(C)CCCc1cccc(C2Oc3cccc(OC(F)F)c3-c3ccc(NS(C)(=O)=O)cc32)c1` (stereo not shown) [Example 134, N-(1-(difluoromethoxy)-6-{3-[3-(trimethylsilyl)propyl]phenyl}-6H-benzo[c]chromen-8-yl)methanesulfonamide], the inhibition at 1.7 µM stood at 88.8%.

Consider `CCCN(C)c1ccc(C2Oc3cccc(OC(F)F)c3-c3ccc(N)c(Br)c32)cc1` (stereo not shown) [Example 29, (1-difluoromethoxy-6-(4-(N-propyl-N-methylamino)phenyl)-7-bromo-6H-dibenzo(b,d)pyran-8-yl)-amine], for which the inhibition at 1.7 µM was determined as 55%.

As for `COc1cccc2c1-c1ccc(NC(=O)C(C)C)cc1C(c1ccccc1)O2` (stereo not shown) [Example 14], the “GR BINDING (% Inhibition @ 1.7 μM)” value worked out at 85.1%.

`CS(=O)(=O)Nc1ccc2c(c1)C(c1cccc(CCCC(=O)O)c1)Oc1cccc(OC(F)F)c1-2` (stereo not shown) [Example 121, 4-(3-{1-(difluoromethoxy)-8-[(methylsulfonyl)amino]-6H-benzo[c]chromen-6-yl}phenyl)butanoic acid]: the inhibition at 1.7 µM was found to be 76.6%.

As for `C=CCOc1ccc2c(c1OC)-c1ccc(NS(C)(=O)=O)cc1C(c1ccccc1)O2` (stereo not shown) [Example 105, N-[2-(allyloxy)-1-methoxy-6-phenyl-6H-benzo[c]chromen-8-yl]methanesulfonamide], the inhibition at 1.7 µM was found to be 83.5%.

As for `COc1cccc2c1-c1ccc(NS(C)(=O)=O)cc1C(c1cccc(N(C)S(=O)(=O)c3ccc(-c4ccon4)s3)c1)O2` (stereo not shown) [Example 149, 5-(3-isoxazolyl)-N-(3-{1-methoxy-8-[(methylsulfonyl)amino]-6H-benzo[c]chromen-6-yl}phenyl)-N-methyl-2-thiophenesulfonamide], the inhibition at 1.7 µM was 69%.

As for `COc1ccc(S(=O)(=O)N(C)c2cccc(C3Oc4cccc(OC)c4-c4ccc(NS(C)(=O)=O)cc43)c2)cc1` (stereo not shown) [Example 148, 4-methoxy-N-(3-{1-methoxy-8-[(methylsulfonyl)amino]-6H-benzo[c]chromen-6-yl}phenyl)-N-methylbenzenesulfonamide], the inhibition at 1.7 µM was determined as 82.7%.

For the compound `C=CCc1cccc2c1-c1ccc(NS(C)(=O)=O)cc1C(c1ccccc1)O2` (racemic) [Example 41], the inhibition at 1.7 µM turned out to be 88.7%.

Regarding `C=Cc1cccc2c1-c1ccc(NS(C)(=O)=O)cc1C(c1ccccc1)O2` (racemic) [Example 37], the inhibition at 1.7 µM worked out at 94.8%.

In the case of `COc1cccc2c1-c1ccc(NS(C)(=O)=O)cc1C(c1cccc(CCCC(=O)O)c1)O2` (stereo not shown) [Example 151, 4-(3-{1-methoxy-8-[(methylsulfonyl)amino]-6H-benzo[c]chromen-6-yl}phenyl)butanoic acid], the inhibition at 1.7 µM stood at 69.5%.

Consider `COc1cc(C)cc2c1-c1ccc(NS(C)(=O)=O)cc1C(c1ccccc1)O2` (stereo not shown) [Example 67, (1-methoxy-3-methyl-6-phenyl-6H-dibenzo(b,d)pyran-8-yl)methanesulfonamide], for which the inhibition at 1.7 µM stood at 49.3%.

Consider `COc1cccc2c1-c1ccc(NS(C)(=O)=O)cc1C(c1ccc(/C=C/c3ccccc3)s1)O2` (stereo not shown) [Example 101, N-(1-methoxy-6-{5-[(E)-2-phenylethenyl]-2-thienyl}-6H-benzo[c]chromen-8-yl)methanesulfonamide], for which the inhibition at 1.7 µM stood at 91.3%.

As for `CS(=O)(=O)Nc1ccc2c(c1)C(c1ccccc1)Oc1cccc(CO)c1-2` (stereo not shown) [Example 104, N-[1-(hydroxymethyl)-6-phenyl-6H-benzo[c]chromen-8-yl]methanesulfonamide], the inhibition at 1.7 µM was found to be 86.8%.

Turning to `COc1cccc2c1-c1ccc(CC(N)=O)cc1C(c1ccccc1)O2` (stereo not shown) [Example 12, (1-methoxy-6-phenyl-6H-dibenzo(b,d)pyran-8-yl)acetamide], the inhibition at 1.7 µM was 86.1%.

As to `COc1cccc2c1-c1ccc(NS(C)(=O)=O)cc1C(c1cccc(Oc3ccc(C(C)=O)cc3)c1)O2` (stereo not shown) [Example 140, N-{6-[3-(4-acetylphenoxy)phenyl]-1-methoxy-6H-benzo[c]chromen-8-yl}methanesulfonamide], the inhibition at 1.7 µM is 84.1%.

For the compound `COCCNC(=O)c1cccc(C2Oc3cccc(OC)c3-c3ccc(NS(C)(=O)=O)cc32)c1` (stereo not shown) [Example 64, (1-methoxy-6-(3-(2-methoxyethyl)aminocarbonyl)phenyl-6H-dibenzo(b,d)pyran-8-yl)-methanesulfonamide], the “GR BINDING (% Inhibition @ 1.7 μM)” value stood at 44.3%.

On to `COc1cccc2c1-c1ccc(NS(=O)(=O)/C=C/c3ccccc3)cc1C(c1ccccc1)O2` (stereo not shown) [Example 11, (1-methoxy-6-phenyl-6H-dibenzo(b,d)pyran-8-yl)-(2-phenyl-E-ethenyl) sulfonamide], for which the inhibition at 1.7 µM is 57.8%.

Consider `COc1cccc2c1-c1ccc(NS(C)(=O)=O)cc1C(c1cccc(CCCC#N)c1)O2` (stereo not shown) [Example 112, N-{6-[3-(3-cyanopropyl)phenyl]-1-methoxy-6H-benzo[c]chromen-8-yl}methanesulfonamide], for which the inhibition at 1.7 µM came to 91.7%.

As for `COc1cccc2c1-c1ccc(NS(C)(=O)=O)cc1C(C#N)O2` (stereo not shown) [Example 90, N-(6-cyano-1-methoxy-6H-benzo[c]chromen-8-yl)methanesulfonamide], the inhibition at 1.7 µM is 55.1%.

In the case of `COc1cccc2c1-c1ccc(NS(C)(=O)=O)cc1C(c1cccc(N(C)C(C)=O)c1)O2` (stereo not shown) [Example 110, N-(3-{1-methoxy-8-[(methylsulfonyl)amino]-6H-benzo[c]chromen-6-yl}phenyl)-N-methylacetamide], the inhibition at 1.7 µM was 74.8%.

Turning to `C=CCCCc1cccc(C2Oc3cccc(OC)c3-c3ccc(NS(C)(=O)=O)cc32)c1` (stereo not shown) [Example 111, N-{1-nethoxy-6-[3-(4-pentenyl)phenyl]-6H-benzo[c]chromen-8-yl}methanesulfonamide], the “GR BINDING (% Inhibition @ 1.7 μM)” value turned out to be 87.4%.

For `CCC(=O)Nc1ccc2c(c1)C(c1ccccc1)Oc1cccc(OC)c1-2` (stereo not shown) [Example 13, (1-methoxy-6-phenyl-6H-dibenzo(b,d)pyran-8-yl)propionamide], the “GR BINDING (% Inhibition @ 1.7 μM)” value amounted to 85.4%.

On to `CC#Cc1cccc2c1-c1ccc(NS(C)(=O)=O)cc1C(c1ccccc1)O2` (racemic) [Example 39], for which the inhibition at 1.7 µM is 90.6%.

These data come from patent publication US6593480B2 (Abbott Laboratories, priority 1999, dated 2003).
